Measurements published in patent US11877990B1, “Agmatine compositions for treatment of osteoarthritis” (priority 2022, dated 2024).

Tests used:
[1] = tested on: bilateral knee osteoarthritis; assay: Agmatine Administration Case 1: self-treatment and self-rating of knee osteoarthritis symptoms (WOMAC Index, VAS); assay type: in vivo, human; conditions: for VAS Score / WOMAC (% Total Score): treatment duration 12-14 months
From the text: Two study participants, each suffering from bilateral knee osteoarthritis, were consecutively self-treated as shown in the following Table 1: Treatment started with acetaminophen (as TYLENOL®, considered standard drug treatment) used as a rescue medication for the duration of their symptoms, 12 or 14 months as needed, followed by a 12-week treatment period of acetaminophen plus agmatine (taken as the G-AGMATINE® brand of agmatine sulfate). The participants self-rated their OA symptoms according to the WOMAC (Western Ontario and McMaster Universities Osteoarthritis) Index and according to the Visual Analog (pain) Scale (VAS). They had bilateral symptoms of mild-to-moderate chronic, frequent knee pain typical of knee OA according to WOMAC, score range of >25 and <100. Table 1 presents a summary of the participants' characteristics and treatment assessment at the indicated follow-up times. For the entire acetaminophen-only treatment, the dosage was 500 milligrams per caplet, and the frequency was two caplets every six hours, as needed (i.e., 1000 mg per six-hour period). For the acetaminophen plus agmatine regimen, the participants' initial dosage of acetaminophen was 500 milligrams per caplet with an initial dosage of agmatine of 450 milligrams per capsule. While the frequency of acetaminophen dosage for both participants remained two caplets every six hours, the frequency of the agmatine capsules was six capsules daily (i.e., 2,700 mg per day). […] Participant 1 eliminated acetaminophen after six weeks, and participant 2 eliminated acetaminophen after eight weeks of treatment. Thereafter, the participants were taking only agmatine and reduced the quantity of agmatine by one third (i.e., a regimen of 1,800 mg per day).

[2] = tested on: bilateral knee osteoarthritis; assay: Agmatine Administration Case 2: consecutive self-treatment with acetaminophen, GCM formulation and agmatine (VAS, WOMAC); assay type: in vivo, human; conditions: agmatine taken with acetaminophen and with acetaminophen/GCM formulation
From the text: In a second study, four participants had bilateral symptoms of mild-to-moderate chronic, frequent knee pain typical of knee osteoarthritis according to a WOMAC Index score range of >25 and <100. They are compared in Table 2. Participants began taking acetaminophen (as TYLENOL®) as needed over the course of the symptom duration: Referring to FIG. 1, the four participants self-treated consecutively as follows: starting with Acetaminophen (as TYLENOL®, considered a standard drug treatment) used as a rescue medication for the duration of their symptoms for 4 to 6 months, followed by a sixty-day treatment period with acetaminophen plus a GCM formulation (i.e., glucosamine HCl, chondroitin sulfate, and methylsulfonylmethane (MSM)). The GCM formulation was followed by sixty-day period using a combination comprising acetaminophen, the GCM formulation, and agmatine (taken as the G-AGMATINE® brand of agmatine sulfate). […] Referring to FIG. 3, changes in the WOMAC ratings are shown, expressed as a percentage of total scores, at the specified time intervals after initiation of each of the acetaminophen (labeled “acet in the figure), acetaminophen and GCM formulation, and the combination acetaminophen/GCM formulation/agmatine treatment regimens. […]

[3] = humans, ingested; cited from earlier work

Row | Compound | VAS Score ([1]; Participant #1, acetaminophen as needed) | WOMAC (% Total Score) ([1]; Participant #1, acetaminophen as needed (entry two)) | WOMAC (% Total Score) ([1]; Participant #2 (person one), acetaminophen as needed) | VAS Score ([1]; Participant #2, acetaminophen as needed) | Effect on improving OA symptoms (in words) [2] | apparent blood half-life [3] | Effect on OA symptoms (in words) ([1]; agmatine taken with acetaminophen, two participants)
1 | CC(=O)Nc1ccc(O)cc1 [Acetaminophen] | 6.0 | 83.3 | 85.4 | 6.5 | – | – | –
2 | N=C(N)NCCCCN [Agmatine] | – | – | – | – | unexpected synergistic effect | about two | dramatic improvement in OA symptoms
